In patent US6384188B1, “Lipopolysaccharide-binding and neutralizing peptides” (Dana-Farber Cancer Institute, Inc., priority 1993, dated 2002):
Bridge positions count the residues as written; N and C are the ends. Peptide text beside a SMILES is read from it. * marks the point of attachment. Biotin = O=C1N[C@H]2[C@H](CS[C@H]2CCCCC(=O)*)N1

Tests used:
[1] = LPS binding as determined by ELISA (general description); parameters: species or system E. coli
From the text: (§1) In a still further preferred embodiment, the present invention provides for peptides which effectively bind to LPS and are constrained to adopt a circular conformation by an intramolecular bridge. In this context, the circular conformation can be brought about by any one of a number of intramolecular bridges. Preferably, the peptide may incorporate two cysteine residues between which a disulfide bond is formed by an oxidation reaction. Alternatively, the two cysteines may be linked through a homo-bifunctional cross-linking reagent, such as a bis-maleimide. Particularly preferred are the cyclic peptides comprising amino acids 31 to 52 and amino acids 38 to 45 of LALF, each stabilized by a disulfide bond formed between two cysteine residues, producing a cyclic conformation (FIG. 2). […] This defines a minimal LPS-binding domain to be the peptide spanning amino acids 38 to 45 of LALF. […] Thus, particularly preferred are also the peptides spanning amino acids 90 to 101 and amino acids 90 to 97 of LBP (FIG. 3). […] This defines a second minimal LPS binding domain to be the peptide spanning amino acids 90 to 97 of LBP. […] Particularly preferred are the peptides spanning amino acids 90 to 97 and amino acids 90 to 101 of BPI (FIG. 4). This defines a third minimal LPS-binding domain to be the peptide spanning amino acids 90 to 97 of BPI.

[2] = ELISA binding of biotinylated peptides to immobilized lipid A; settings: biotinylated peptide 0.1-10 μg/ml on immobilized lipid A; FIG. 8, 9
Procedure: The lipid A-binding activities of the peptides are shown in an ELISA format as follows. An ELISA plate (NUNC, Polysorp 96U) is coated for 90 minutes at 37° C. with 100 μl lipid A in PBS (0.25-1 μg/ml). All further steps are done at room temperature. After washing and blocking (10 min.) with PBS/0.1% Tween, the solid phase is incubated for 1 hour with 100 μl of increasing amounts (0.1 μg/ml-10 μg/ml) of purified synthetic peptides (dissolved in PBST) labelled at the N-terminus with biotin. After washing with PBS/0.1% Tween, the bound peptides are incubated for 45 min. with 100 μl streptavidin conjugated to alkaline phosphatase (Boehringer Mannheim GmbH; 1:10000 diluted in PBS/0.1% Tween), followed again by washing with PBS/0.1% Tween and 100 mM Tris pH 9.5. p-Nitrophenylphosphate (2 mg/ml in 100 mM Tris pH 9.5) is used as a substrate for alkaline phosphatase. The ELISA is read at 405 nm.
To investigate the importance of the constrained conformation for high affinity peptide-lipid A binding, binding activity of cyclic and the corresponding linear peptides is compared.

[3] = Binding of fluorescein-labelled LPS to biotinylated peptides immobilized via streptavidin; parameters: species or system Salmonella enteriditis; settings: peptide 1 or 10 μg/ml on streptavidin plate, FITC-LPS 0.5 μg/ml; FIG. 12
Procedure: To investigate the potential use of multimeric peptides for increasing the binding to LPS, individual peptides are coated on an ELISA plate to high surface concentrations. Immobilization is performed by first coating the plate with strepravidin and then binding the peptides via their N-terminal biotin groups. Thus, 100 μl streptavidin (Boehringer Mannheim GmbH; 10 μg/ml in PBS) is used for coating followed by washing, blocking (10 min.) with PBS/0.1% Tween and a 30 min. incubation with 100 μl of purified synthetic peptides (1 μg/ml or 10 μg/ml in PBST) labelled at the N-terminus with biotin. After washing with PBS/0.1% Tween the peptides are incubated for 1 hr With FITC-labelled LPS (SIGMA; Salmonella enteriditis; 0.5 μg/ml in PBS/0.1% Tween). After washing with PBS/0.1% Tween, the ELISA plate is incubated with 100 μl of an anti-FITC antibody conjugated to alkaline phosphatase (SIGMA; 1:2500 diluted in PBS/0.1% Tween) and washed with PBS/0.1% Tween and 100 mM Tris pH 9.5. p-Nitrophenyl-phosphate (2 mg/ml in 100 mM Tris pH 9.5) is used as a substrate for alkaline phosphatase. The ELISA is read at 405 nm. All steps are done at room temperature.

[4] = test system: LALF binding to immobilized lipid A; assay: Competition of LALF:lipid A binding by peptides (ELISA)
Procedure: (§2) To investigate the specificity of peptides in binding lipid A and LPS, competition experiments with known endotoxin binding proteins such as LALF and LBP and the antibiotic polymyxin B are carried out. Thus an ELISA plate (NUNC, Polysorp 96U) is coated for 90 min. at 37° C. with 100 μl lipid A in PBS (0.25-0.3 μg/ml) or lipopolysaccharide in PBS (0.25-0.3 μg/ml). All further steps are done at room temperature. After washing and blocking (10 min.) with PBS/0.1% Tween, the solid phase is incubated for 1 hr with 100 μl or increasing amounts (0.01 μg/ml-100 μg/ml in PBS/0.1% Tween) of unlabelled or biotin-labelled peptides mixed with an endotoxin binding protein (LALF or LBP; 0.2 μg/ml in PBS/0.1% Tween). After washing with PBS/0.1% Tween, the ELISA plate is incubated for 45 min. with 100 μl of a rabbit antiserum against LALF or LBP, respectively. After washing with PBS/0.1% Tween the ELISA plate is incubated with 100 μl anti-rabbit antibody conjugated to alkaline phosphatase (SIGMA; 1:10000 diluted in PBS/0.1% Tween) and washed with PBS/0.1% Tween and 100 mM Tris pH 9.5. p-Nitrophenyl-phosphate (2 mg/ml in 100 mM Tris pH 9.5) is used as a substrate for alkaline phosphatase. The ELISA is read at 405 nm.

[5] = test system: LALF binding to immobilized lipid A; assay: Influence of serum on the competition of LALF:lipid A binding by peptide; settings: 100 μg/ml peptide, 10% fetal calf serum; FIG. 18
Procedure: as §2, with “nm. […]” for “nm.”

[6] = Chromogenic Limulus amebocyte lysate test; assay type: biochemical, E. coli; settings: peptides 0.1-10 μg/ml preincubated with LPS 15 min at 37° C.; FIG. 19
Procedure: (§3) The Limulus amebocyte Lysate test (gelling assay; sensitivity 0.125 EU/ml) and the Chromogenic Limulus amebocyte Lysate test (sensitivity 0.06 EU/ml) are performed according to the manufacturer's instruction (Bio*Whittaker, Walkersville, Md.) using E. coli 055:B5 lipopolysaccharide. For neutralisation of LPS, peptides (0.1-10 μg/ml) and LPS are incubated for 15 min. at 37° C. and then added to the Limulus lysate. […] The chromogenic assay allows quantification of the lipopolysaccharide neutralizing capacity of the peptides.

[7] = test system: biotin-labelled LBP-14 binding to immobilized lipid A; assay: Competition of LBP14:lipid A binding by peptides and proteins (ELISA); settings: unlabelled competitor in increasing amounts, biotin-LBP-14 1 μg/ml; FIG. 16; very similar result with LALF-14
Procedure: An ELISA plate (NUNC, Polysorp 96U) is coated for 90 min. at 37° C. with 100 μl lipid A in PBS (0.2-0.3 μg/ml). All further steps are done at room temperature. After washing and blocking (10 min.) with PBS/0.1%. Tween, the solid phase is incubated for 1 hr with 100 μl of increasing amounts (0.01 μg/ml-10 μg/ml) of unlabelled peptides or proteins mixed with a biotin-labelled peptide (1 μg/ml in PBST/0.1% Tween). After washing with PBS/0.1% Tween, 100μl streptavidin conjugated to alkaline phosphatase (Boehringer Mannheim GmbH, 1:10000 diluted in PBS/0.1% Tween) is added to the wells. This incubation is followed by washing with PBS/0.1% Tween and 100 mM Tris pH 9.5. p-Nitrophenyl-phosphate (2 mg/ml in 100 mM Tris pH 9.5) is used as a substrate for alkaline phosphatase. The ELISA is read at 405 nm.
CD14 is used to compete the peptide-lipid A binding. The principle of such a binding assay is the same as for the LALF- or LBP-lipid A competition assays in which a constant amount of detectable peptide or protein is competed by an increasing amount of another peptide or protein. Instead of detecting LALF, bound biotin-labelled peptide is detected with streptavidin conjugated to alkaline phosphatase, and the labelled peptide concentration is kept constant while the unlabelled peptide or protein amount is increased. […] A very similar result is observed when LALF-14 is used instead of LBP-14.

[8] = LPS binding as shown by ELISA (general description); settings: FIG. 2-7 peptides
From the text: as §1

[9] = Limulus amebocyte lysate test (gelling assay); assay type: biochemical, E. coli; settings: peptides 0.1-10 μg/ml preincubated with LPS 15 min at 37° C.; FIG. 19
Procedure: as §3

[10] = test system: LBP binding to immobilized lipid A; assay: Competition of LBP:lipid A binding by peptides (ELISA); settings: 100 μg/ml peptide; FIG. 15
Procedure: as §2
The ability of the peptides to compete with LBP for binding to LPS is determined in the same way as in Example 5, except that LALF is replaced with LBP (see FIG. 15). […]

[11] = test system: monocytes (LPS Re-LPS F515 induced TNF release); assay: Inhibition of LPS-mediated TNF release by monocytes; assay type: cell-based, human; settings: peptide 10 μg/ml preincubated with LPS; TNF by ELISA; FIG. 20
Procedure: Monocytes are purified with a ficoll gradient (d=1.077) from whole blood by centrifugation for 20 min. at 2200 rpm at room temperature. Ficoll is removed by washing 3 times with PBS. Purified monocytes are counted and diluted to 2×10^6 cells/900 μl in medium (RPMI+) or medium with 0.1%-10% human serum. For TNF induction, 2×10^6 monocytes (in 900 μl medium or medium with serum) and 100 μl of LPS (Re-LPS F515; 0.1 ng/ml-10 ng/ml) or mixtures of LPS with peptides (10 μg/ml) (preincubated for 15 min. at 37° C.) are incubated in a 24 well plate (NUNC) for 2 to 5 hr. The supernatant is taken off and spun twice for 2 min. at 1500 rpm, once for 5 min. at 15000 rpm and stored at −20° C. for TNF determination. The induced TNF is assayed by ELISA according to the manufacturer's instruction (BioSource International, California) using a 50 μl sample of thawed supernatant.

[12] = peptide 0.01-100 μg/ml, LALF 0.2 μg/ml, FIG. 13, 14

With `CC(C)C[C@@H]1NC(=O)[C@H](CCCNC(=N)N)NC(=O)[C@H](CCCNC(=N)N)NC(=O)[C@H](Cc2ccccc2)NC(=O)[C@H]([C@@H](C)O)NC(=O)[C@@H](NC(=O)CCCC[C@@H]2SC[C@@H]3NC(=O)N[C@@H]32)CSSC[C@@H](C(=O)O)NC(=O)[C@H](CCCCN)NC(=O)[C@H](Cc2c[nH]c3ccccc23)NC(=O)[C@H](CCCCN)NC1=O` [LALF-10] (Biotin-CTFRRLKWKC-OH; disulfide 1-10) the “binding to E. coli EH 100 LPS as determined by ELISA” value [1] was “Both bind lipid A and, additionally, two different types of LPS-molecules”.

In the case of `CC[C@H](C)[C@@H]1NC(=O)[C@H](CCCNC(=N)N)NC(=O)[C@H](Cc2ccc(O)cc2)NC(=O)[C@H](Cc2c[nH]cn2)NC(=O)[C@@H](N)CSSC[C@@H](C(=O)O)NC(=O)[C@H](Cc2c[nH]c3ccccc23)NC(=O)[C@H](Cc2ccccc2)NC(=O)[C@H](CCCCN)NC(=O)CNC(=O)[C@H](CCCCN)NC(=O)[C@H](Cc2ccc(O)cc2)NC(=O)[C@H](CCCCN)NC(=O)[C@H](Cc2c[nH]c3ccccc23)NC(=O)[C@H](CCCCN)NC(=O)[C@H](CC(C)C)NC(=O)[C@H](CCCNC(=N)N)NC(=O)[C@H](CCCNC(=N)N)NC(=O)[C@H](Cc2ccccc2)NC(=O)[C@H]([C@@H](C)O)NC(=O)[C@@H]2CCCN2C(=O)[C@H](CCCCN)NC1=O` [amino acids 31 to 52 of LALF] (H-CHYRIKPTFRRLKWKYKGKFWC-OH; disulfide 1-22; N-terminus and C-terminus assumed), the “binding to E. coli EH 100 LPS as determined by ELISA” value [1] is reported as “Both bind lipid A and, additionally, two different types of LPS-molecules”.

For “Biotin-Z-C-K-W-K-I-R-K-F-S-C-N (Z=β-alanine) [MS-22]”, the “lipid A-binding activity (ELISA)” value [2] was “binds lipid A clearly above background level and with a similar activity to LBP-10-1, but weaker than MS-21”.

For “Biotin-Z-K-C-F-T-R-R-A-K-W-R-C (Z=β-alanine) [MS-21]”, the “binding of FITC-labelled LPS to immobilized peptide” value [3] was “highest binding affinity to LPS”, the “competition with LALF for lipid A binding” value ([4]; at 100 μg/ml peptide, FIG. 14) was roughly 80% and the “lipid A-binding activity (ELISA)” value [2] was “binds lipid A weaker than LALF-14 and LBP-14, but slightly better than BPI-14”.

In the case of “I-K-T-K-K-F-L-K-K-T (IKTKKFLKKT) [PolP-1]”, the “competition with LALF for lipid A binding in the presence of 10% serum” value [5] is reported as “only inhibit slightly above background”, the “competition with LALF for lipid A binding” value [4, 12] is reported as “hardly competes with LALF for lipid A binding” and the “inhibition of the chromogenic Limulus amebocyte lysate assay” value [6] is reported as “up to 25%”. The “competition of LBP-14 binding to lipid A” value [7] was “only slightly above the background determined by lysozyme as competitor”.

With “amino acids 90 to 97 of BPI: peptide spanning amino acids 90 to 97 of BPI, cyclic by disulfide bond between two cysteines” the “binding to LPS as shown by ELISA” value [8] was “able to bind LPS”.

In the case of lysozyme, the “competition with LALF for lipid A binding” value ([4]; at 100 μg/ml peptide, FIG. 14) is reported as 10%, the “competition with LALF for lipid A binding” value [4, 12] is reported as “not able to compete with LALF” and the “competition of LBP-14 binding to lipid A” value [7] is reported as “background determined by lysozyme as competitor”.

With polymyxin B the “competition with LALF for lipid A binding in the presence of 10% serum” value [5] was “also inhibiting in the presence of 10% serum”, the “inhibition of LPS-mediated gelling of Limulus amebocyte lysate” value [9] was “inhibit the assays” and the “competition with LALF for lipid A binding” value [4, 12] was “able to displace LALF almost completely from immobilized lipid A”. The “competition with LBP for lipid A binding” value [10] was “not able to compete with LBP for binding to lipid A”, the “inhibition of TNF release” value [11] was 95% and the “competition of LBP-14 binding to lipid A” value [7] was “only weak competition activity at the highest concentration used”.
